Read-outs that look alike come from different tables or passages of the source.
Legend:
Assay type in all cases: cell-based
[1] = system: NCI-H460 (human lung cancer cell line); experiment: In vitro MTS cell viability assay (NCI-60 methodology), NCI-H460; conditions: NCI-H460 cells, read-out: NCI-H460 LC50
Method in brief: (§1)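 NCI-60 style: compound added 24 h post-plating at five 2-fold dilutions plus DMSO control, then 2 days' incubation, MTS read-out. Time-zero plate gives Tz; LC50 is the concentration where [(Ti−Tz)/Tz]×100=−50.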

[2] = system: SW480 (colon adenocarcinoma cell line); experiment: In vitro MTS cell viability assay (NCI-60 methodology), SW480; conditions: Homo sapiens, SW480 cells, read-out: SW480 LC50
Method in brief: as §1

[3] = system: Hep3B cells (hepatocellular carcinoma cell line); experiment: In vitro MTS cell viability assay (NCI-60 methodology), Hep3B; conditions: Homo sapiens, 48 h, 2 days drug incubation, 50% reduction vs time zero, read-out: Hep3B LC50
Method in brief: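 Hep3B cells given five 2-fold dilutions of compound for 2 days, with viability by MTS measured at time zero and at end. LC50 is the concentration giving a 50% fall in viable cells relative to the start of treatment, per NCI-60 formula.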

With `CCCOc1ccc(-c2nc(NC(=O)c3ccc([N+](=O)[O-])s3)c3cnn(-c4ccc(F)cc4)c3n2)cn1` [Compound 6-133, N-(1-(4-fluorophenyl)-6-(6-propoxypyridin-3-yl)-1H-pyrazolo[3,4-d]pyrimidin-4-yl)-5-nitrothiophene-2-carboxamide] the CC50 [1] was 490 nM, the CC50 [2] was 430 nM and the LC50 ([3]; Table 6, MTS) was 160 nM.
`O=C(Nc1nc(-c2ccc(F)nc2)nc2c1cnn2C1CCCCC1)c1ccc([N+](=O)[O-])s1` [Compound 10-14, N-(1-cyclohexyl-6-(6-fluoropyridin-3-yl)-1H-pyrazolo[3,4-d]pyrimidin-4-yl)-5-nitrothiophene-2-carboxamide] showed a CC50 [1] of 910 nM, a CC50 [2] of 1710 nM and an LC50 ([3]; Table 10, MTS) of 890 nM.
Compound `Cc1ccc(-c2nc(NC(=O)c3ccc([N+](=O)[O-])s3)c3cnn(-c4ccc(F)cc4)c3n2)cn1` [Compound 6-120, N-(1-(4-fluorophenyl)-6-(6-methylpyridin-3-yl)-1H-pyrazolo[3,4-d]pyrimidin-4-yl)-5-nitrothiophene-2-carboxamide] has a CC50 [1] of 1340 nM, a CC50 [2] of 510 nM and an LC50 ([3]; Table 6, MTS) of 250 nM.
In the case of `O=C(Nc1nc(-c2ccc(F)cc2)nc2c1cnn2-c1ccc(F)cc1)c1ccc([N+](=O)[O-])s1` [Compound 6-115, N-(1,6-bis(4-fluorophenyl)-1H-pyrazolo[3,4-d]pyrimidin-4-yl)-5-nitrothiophene-2-carboxamide], the CC50 [1] is reported as 1130 nM, the CC50 [2] is reported as 1910 nM and the LC50 ([3]; Table 6, MTS) is reported as 220 nM.
`O=C(Nc1nc(-c2ccc(Cl)nc2)nc2c1cnn2C1CCC(F)(F)CC1)c1ccc([N+](=O)[O-])s1` [Compound 10-57, N-(6-(6-chloropyridin-3-yl)-1-(4,4-difluorocyclohexyl)-TH-pyrazolo[3,4-d]pyrimidin-4-yl)-5-nitrothiophene-2-carboxamide] gave a CC50 [1] of 1300 nM, a CC50 [2] of 1340 nM and an LC50 ([3]; Table 10, MTS) of 570 nM.
With `CCOCCOCCOc1ccc(-c2nc(NC(=O)c3ccc([N+](=O)[O-])s3)c3cnn(-c4cccc(Cl)c4)c3n2)cn1` [Compound 6-45, N-(1-(3-chlorophenyl)-6-(6-(2-(2-ethoxyethoxy)ethoxy)pyridin-3-yl)-1H-pyrazolo[3,4-d]pyrimidin-4-yl)-5-nitrothiophene-2-carboxamide] the CC50 [1] was 570 nM, the CC50 [2] was 580 nM and the LC50 ([3]; Table 6, MTS) was 220 nM.
With `COc1ccc(-n2ncc3c(NC(=O)c4ccc([N+](=O)[O-])s4)nc(-c4ccc(F)cc4)nc32)cc1` [Compound 6-18, N-(6-(4-fluorophenyl)-1-(4-methoxyphenyl)-1H-pyrazolo[3,4-d]pyrimidin-4-yl)-5-nitrothiophene-2-carboxamide] the CC50 [1] was 270 nM, the CC50 [2] was 1240 nM and the LC50 ([3]; Table 6, MTS) was 180 nM.
Compound `O=C(Nc1nc(N2CCC(F)(F)C2)nc2c1cnn2-c1ccc(OC(F)(F)F)cc1)c1ccc([N+](=O)[O-])s1` [Compound 6-85, N-(6-(3,3-difluoropyrrolidin-1-yl)-1-(4-(trifluoromethoxy)phenyl)-1H-pyrazolo[3,4-d]pyrimidin-4-yl)-5-nitrothiophene-2-carboxamide] has a CC50 [1] of 560 nM, a CC50 [2] of 680 nM and an LC50 ([3]; Table 6, MTS) of 200 nM.
`O=C(Nc1nc(-c2ccc(Cl)nc2)nc2c1cnn2-c1ccccc1)c1ccc([N+](=O)[O-])s1` [Compound 5-31, N-(6-(6-chloropyridin-3-yl)-1-phenyl-1H-pyrazolo[3,4-d]pyrimidin-4-yl)-5-nitrothiophene-2-carboxamide] was tested, and the CC50 [1] was 410 nM, the CC50 [2] was 860 nM and the LC50 ([3]; Table 5, MTS) was 100 nM.
In the case of `COc1nc(NC(=O)c2ccc([N+](=O)[O-])s2)c2cnn(-c3ccc(C(C)(C)C)cc3)c2n1` [Compound 6-57, N-(1-(4-(tert-butyl)phenyl)-6-methoxy-1H-pyrazolo[3,4-d]pyrimidin-4-yl)-5-nitrothiophene-2-carboxamide], the CC50 [1] is reported as 2750 nM, the CC50 [2] is reported as 1240 nM and the LC50 ([3]; Table 6, MTS) is reported as 700 nM.
For `O=C(Nc1nc(-c2ccc(Cl)nc2)nc2c1cnn2-c1ccc(F)cc1)c1ccc([N+](=O)[O-])s1` [Compound 6-119, N-(6-(6-chloropyridin-3-yl)-1-(4-fluorophenyl)-1H-pyrazolo[3,4-d]pyrimidin-4-yl)-5-nitrothiophene-2-carboxamide], the CC50 [1] was 530 nM, the CC50 [2] was 690 nM and the LC50 ([3]; Table 6, MTS) was 80 nM.
With `CC(C)(C)c1ccc(-n2ncc3c(NC(=O)c4ccc([N+](=O)[O-])s4)nc(-n4cccn4)nc32)cc1` [Compound 6-75, N-(1-(4-tert-butyl)phenyl)-6-(4-(1H-pyrazol-1-yl)-1H-pyrazolo[3,4-d]pyrimidin-4-yl)-5-nitrothiophene-2-carboxamide] the CC50 [1] was 1280 nM, the CC50 [2] was 5480 nM and the LC50 ([3]; Table 6, MTS) was 240 nM.
With `O=C(Nc1nc(-c2ccc(F)cc2)nc2c1cnn2-c1ccc(C(F)(F)F)cn1)c1ccc([N+](=O)[O-])s1` [Compound 7-1, N-(6-(4-fluorophenyl)-1-(5-(trifluoromethyl)pyridin-2-yl)-1H-pyrazolo[3,4-d]pyrimidin-4-yl)-5-nitrothiophene-2-carboxamide] the CC50 [1] was 8630 nM, the CC50 [2] was > 20000 nM and the LC50 ([3]; Table 7, MTS) was 260 nM.
Work on `CN(C)CCOc1ccc(-c2nc(NC(=O)c3ccc([N+](=O)[O-])s3)c3cnn(-c4ccc(F)cc4)c3n2)cn1` [Compound 6-130, N-(6-(6-(2-(dimethylamino)ethoxy)pyridin-3-yl)-1-(4-fluorophenyl)-1H-pyrazolo[3,4-d]pyrimidin-4-yl)-5-nitrothiophene-2-carboxamide] yielded a CC50 [1] of 3810 nM, a CC50 [2] of 2900 nM and an LC50 ([3]; Table 6, MTS) of 260 nM.
In the case of `CN(C)CCOc1nc(NC(=O)c2ccc([N+](=O)[O-])s2)c2cnn(-c3ccc(C(C)(C)C)cc3)c2n1` [Compound 6-58, N-(1-(4-(tert-butyl)phenyl)-6-(2-(dimethylamino)ethoxy)-1H-pyrazolo[3,4-d]pyrimidin-4-yl)-5-nitrothiophene-2-carboxamide], the CC50 [1] is reported as 3970 nM, the CC50 [2] is reported as 4090 nM and the LC50 ([3]; Table 6, MTS) is reported as 690 nM.
With `O=C(Nc1nc(-c2ccc(Cl)nc2)nc2c1cnn2C1CCCCC1)c1ccc([N+](=O)[O-])s1` [Compound 10-18, N-(6-(6-chloropyridin-3-yl)-1-cyclohexyl-1H-pyrazolo[3,4-d]pyrimidin-4-yl)-5-nitrothiophene-2-carboxamide] the CC50 [1] was 850 nM, the CC50 [2] was 950 nM and the LC50 ([3]; Table 10, MTS) was 680 nM.
`CCOc1ccc(-c2nc(NC(=O)c3ccc([N+](=O)[O-])s3)c3cnn(C4CCCCC4)c3n2)cn1` [Compound 10-23, N-(1-cyclohexyl-6-(6-ethoxypyridin-3-yl)-1H-pyrazolo[3,4-d]pyrimidin-4-yl)-5-nitrothiophene-2-carboxamide] showed a CC50 [1] of 3010 nM, a CC50 [2] of 1660 nM and an LC50 ([3]; Table 10, MTS) of 570 nM.
For `CCOC[C@@H]1CCCN1c1nc(NC(=O)c2ccc([N+](=O)[O-])s2)c2cnn(-c3ccc(F)cc3)c2n1` [Compound 6-104], the CC50 [1] was 860 nM, the CC50 [2] was 650 nM and the LC50 ([3]; Table 6, MTS) was 380 nM.
For `COc1ccc(-c2nc(NC(=O)c3ccc([N+](=O)[O-])s3)c3cnn(-c4ccc(F)cc4)c3n2)cn1` [Compound 6-121, N-(1-(4-fluorophenyl)-6-(6-methoxypyridin-3-yl)-1H-pyrazolo[3,4-d]pyrimidin-4-yl)-5-nitrothiophene-2-carboxamide], the CC50 [1] was 480 nM, the CC50 [2] was 630 nM and the LC50 ([3]; Table 6, MTS) was 70 nM.
Work on `O=C(Nc1nc(-c2cccs2)nc2c1cnn2-c1ccccc1)c1ccc([N+](=O)[O-])s1` [Compound 5-18, 5-nitro-N-(1-phenyl-6-(thiophen-2-yl)-1H-pyrazolo[3,4-d]pyrimidin-4-yl)thiophene-2-carboxamide] yielded a CC50 [1] of 460 nM, a CC50 [2] of 2430 nM and an LC50 ([3]; Table 5, MTS) of 580 nM.
Work on `O=C(Nc1nc(-c2cncnc2)nc2c1cnn2-c1ccc(F)cc1)c1ccc([N+](=O)[O-])s1` [Compound 6-112, N-(1-(4-fluorophenyl)-6-(pyrimidin-5-yl)-1H-pyrazolo[3,4-d]pyrimidin-4-yl)-5-nitrothiophene-2-carboxamide] yielded a CC50 [1] of 970 nM, a CC50 [2] of 810 nM and an LC50 ([3]; Table 6, MTS) of 220 nM.
With `COCCOc1ccc(-c2nc(NC(=O)c3ccc([N+](=O)[O-])s3)c3cnn(-c4ccc(F)cc4)c3n2)cn1` [Compound 6-135, N-(1-(4-fluorophenyl)-6-(6-(2-methoxyethoxy)pyridin-3-yl)-1H-pyrazolo[3,4-d]pyrimidin-4-yl)-5-nitrothiophene-2-carboxamide] the CC50 [1] was 560 nM, the CC50 [2] was 690 nM and the LC50 ([3]; Table 6, MTS) was 220 nM.
Work on `O=C(Nc1nc(-c2ccc(F)cc2)nc2c1cnn2C1CCCCC1)c1ccc([N+](=O)[O-])s1` [Compound 10-13, N-(1-cyclohexyl-6-(4-fluorophenyl)-1H-pyrazolo[3,4-d]pyrimidin-4-yl)-5-nitrothiophene-2-carboxamide] yielded a CC50 [1] of 2620 nM, a CC50 [2] of 1730 nM and an LC50 ([3]; Table 10, MTS) of 700 nM.
`O=C(Nc1nc(-c2ccc(F)cc2)nc2c1cnn2-c1cccc(F)c1)c1ccc([N+](=O)[O-])s1` [Compound 6-89, N-(1-(3-fluorophenyl)-6-(4-fluorophenyl)-1H-pyrazolo[3,4-d]pyrimidin-4-yl)-5-nitrothiophene-2-carboxamide] was tested, and the CC50 [1] was 710 nM, the CC50 [2] was 810 nM and the LC50 ([3]; Table 6, MTS) was 120 nM.
`O=C(Nc1nc(-c2ccc(F)cc2)nc2c1cnn2-c1cccc(Cl)c1)c1ccc([N+](=O)[O-])s1` [Compound 6-35, N-(1-(3-chlorophenyl)-6-(4-fluorophenyl)-1H-pyrazolo[3,4-d]pyrimidin-4-yl)-5-nitrothiophene-2-carboxamide] gave a CC50 [1] of 500 nM, a CC50 [2] of 520 nM and an LC50 ([3]; Table 6, MTS) of 110 nM.
